Test results taken from US20240366558A1, “TREATING LONG COVID-19 WITH UROLITHINS” (Amazentis SA, priority 2021, published 2024).

Experiments:
Long COVID = assay: Patients afflicted with Long COVID administered 500 mg Mitopure (Urolithin A); format: in vivo, human; settings: three Long COVID patients, patient-indicated
Procedure: Three patients afflicted with Long COVID were administered 500 mg Mitopure™ (Urolithin A). Each patient indicated improvement in symptoms including reduced fatigue and improved muscle function.

human PBMCs = assay: RNA-seq transcriptomic analysis / GSEA of PBMCs from healthy elderly supplemented with Urolithin A; format: in vivo; settings: 500 mg/day for 28 days, end of treatment vs baseline, placebo-filtered
Procedure: RNA was extracted from frozen human PBMCs and quality of extraction controlled with Agilent Fragment Analyzer System. RNA-seq library was prepared as strand-specific cDNA library, after the following steps: Purification of poly-A containing mRNA molecules; mRNA fragmentation; Random primed cDNA synthesis (strand-specific); Adapter ligation and adapter specific PCR amplification. RNA-seq run was performed with the NovaSeq6000 using S4 flowcells with 2×150 bp giving at least 30 million read pairs per sample
The RNA-Seq reads were aligned to the reference human transcriptome using Bowtie generating genome/transcriptome alignments. TopHat identifid the potential exon-exon splice junctions of the initial alignment. Then Cufflinks identified and quantified the transcripts from the preprocessed RNA-Seq alignment assembly. After this, Cuffmerge merged the identified transcript pieces to full length transcripts and annotates the transcripts based on the given annotations. Finally, merged transcripts from two or more samples/conditions were compared, using Cuffdiff to determine the differential expression levels at transcript and gene level including a measure of significance between samples/conditions.
Gene set enrichment analysis (GSEA) was conducted using R package clusterProfiler, v. 3.18.068. Enrichments of Gene Ontology (GO) Biological Process (BP) was investigated. All the genes subjected to the DE analysis and that passed the independent filtering of DEseq2 were ranked by shrunk log 2 fold change values and used as input data for the analysis. Ensembl IDs of the genes were converted to Entrez IDs for the analysis using biomaRt, v. 2.46. Minimum and maximum genes et sizes were set to 15 and 500, respectively. In order to adjust for the placebo effect, the GSEA results of Urolithin A at 500 mg were filtered to exclude enriched terms (p-value <0.05) obtained from the GSEA of the Placebo DEGs. Key pathways were visualised as bar plots ranked by Normalized Enrichment score (NES).
RNA-seq transcriptomic analysis was performed in healthy elderly supplemented with either Urolithin A (UA) at 500 mg/day or Placebo for 28 days. Peripheral blood mononuclear cells (PBMCs) were isolated and collected at baseline and at the end of the study. RNA was extracted from these subjects and used to perform RNA-seq and determine biological pathways modulated specifically by Urolithin A, but not Placebo, comparing end-of treatment to baseline

## O=c1oc2cc(O)ccc2c2ccc(O)cc12 [Urolithin A, urolithin A]
Long COVID
  fatigue: reduced
  muscle function: improved
  symptoms: improvement
Human PBMCs
  Gene Ontology gene set "mitochondrial gene expression": up-regulated
  Gene Ontology gene set "mitochondrial respiratory chain complex assembly": up-regulated
  Gene Ontology gene set "neutrophil activation": down-regulated
  Gene Ontology gene set "oxidative phosphorylation": up-regulated
  Gene Ontology gene set "regulation of response to cytokine stimulus": down-regulated
